Experimental data from BindingDB's records for doi:10.1124/mol.51.1.109 (Max-Planck Institute For Experimental Medicine, 1997).

What was measured:
[1] = target: T1, P2X purinoceptor 4 (Rattus norvegicus, UniProt P51577)
T1 sequence (P51577 whole entry): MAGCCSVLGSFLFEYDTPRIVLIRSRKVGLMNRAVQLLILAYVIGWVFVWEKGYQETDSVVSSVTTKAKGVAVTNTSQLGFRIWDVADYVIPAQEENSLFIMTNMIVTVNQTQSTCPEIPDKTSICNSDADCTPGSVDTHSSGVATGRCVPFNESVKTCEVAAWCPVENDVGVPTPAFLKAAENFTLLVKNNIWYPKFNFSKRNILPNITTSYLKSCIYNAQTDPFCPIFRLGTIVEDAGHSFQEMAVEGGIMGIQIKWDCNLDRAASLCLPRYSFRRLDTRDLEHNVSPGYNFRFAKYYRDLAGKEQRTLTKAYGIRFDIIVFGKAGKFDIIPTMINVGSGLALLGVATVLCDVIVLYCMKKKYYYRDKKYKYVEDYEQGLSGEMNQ

[2] = target: T2, P2X purinoceptor 4 (Homo sapiens, UniProt Q99571)
T2 sequence (Q99571 whole entry): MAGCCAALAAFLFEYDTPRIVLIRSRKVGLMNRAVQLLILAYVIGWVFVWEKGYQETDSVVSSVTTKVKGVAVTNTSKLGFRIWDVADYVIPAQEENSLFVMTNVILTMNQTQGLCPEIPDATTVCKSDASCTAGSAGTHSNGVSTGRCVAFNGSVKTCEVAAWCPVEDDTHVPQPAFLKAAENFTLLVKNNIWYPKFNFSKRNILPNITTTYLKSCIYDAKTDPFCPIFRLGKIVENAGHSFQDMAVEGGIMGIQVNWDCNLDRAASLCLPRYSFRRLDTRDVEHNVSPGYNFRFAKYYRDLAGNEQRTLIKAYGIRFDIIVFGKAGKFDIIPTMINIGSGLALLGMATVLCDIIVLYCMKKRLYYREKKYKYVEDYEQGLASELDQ

Row | Ki [1] | SMILES | Ki [2]
1 | 128 nM | Nc1c(S(=O)(=O)O)cc(Nc2ccc(Nc3nc(Cl)nc(Nc4ccccc4S(=O)(=O)O)n3)c(S(=O)(=O)O)c2)c2c1C(=O)c1ccccc1C2=O | –
2 | 500 nM | Cc1nc(/N=N/c2ccc(S(=O)(=O)O)cc2S(=O)(=O)O)c(COP(=O)(O)O)c(C=O)c1O | –
3 | 500 nM | Cc1ccc(C(=O)Nc2ccc(S(=O)(=O)O)c3cc(S(=O)(=O)O)cc(S(=O)(=O)O)c23)cc1NC(=O)c1cccc(NC(=O)Nc2cccc(C(=O)Nc3cc(C(=O)Nc4ccc(S(=O)(=O)O)c5cc(S(=O)(=O)O)cc(S(=O)(=O)O)c45)ccc3C)c2)c1 [suramin] | 178 nM

Row | SMILES | Ki [1] | Ki [2]
4 | Nc1c(S(=O)(=O)O)cc(Nc2ccc(Nc3nc(Cl)nc(Nc4cccc(S(=O)(=O)O)c4)n3)c(S(=O)(=O)O)c2)c2c1C(=O)c1ccccc1C2=O | 46.2 nM | –
5 | O=S1(=O)OC(c2cc(Br)c(O)c(Br)c2)(c2cc(Br)c(O)c(Br)c2)c2ccccc21 [NSC_8272] | 301 nM | 78.3 nM
